According to ChEMBL document CHEMBL1201862, “PubChem BioAssay data set” (2004):
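Following 48 hours of exposure in 96-well plates, responses at five concentrations were used to interpolate endpoints linearly. Abbreviation: GI50, concentration required for 50% inhibition of growth.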 Activity calls are given as the source filed them. Cut-off read from the data, not from the text of the source: active = GI50 up to about 1.1 µM and inactive = higher.

Experiments:
Assay in all cases: inhibition of tumour cell growth, NCI panel, 48 h
T47D = tested on: T47D
HOP-18 = tested on: HOP-18
XF498 = tested on: XF498
KM-20L2 = tested on: KM-20L2
M19-MEL = tested on: M19-MEL
DMS-273 = tested on: DMS-273
DLD-1 = tested on: DLD-1
RXF 631 = tested on: RXF 631
LXFL 529 = tested on: LXFL 529

| SMILES | GI50 (T47D) | GI50 (M19-MEL) | GI50 (DMS-273) | GI50 (LXFL 529) | other results |
| --- | --- | --- | --- | --- | --- |
| Cc1c(Cl)c(S(N)(=O)=O)cc2c1N=CNS2(=O)=O | > 100 µM (inactive) |  |  |  |  |
| Cc1c(-c2ccccc2)c(C#N)c2nnn(-c3cccc(Cl)c3)c(=O)n12 | 60.5 µM (inactive) |  |  |  |  |
| CC(C)(C)/N=C\N(C=C(c1ccccc1)c1ccccc1)C1CCCCC1 |  | 44.2 µM (inactive) | 46.6 µM (inactive) |  | GI50 (HOP-18): 52.2 µM (inactive); GI50 (XF498): 16.6 µM (inactive); GI50 (KM-20L2): 16.9 µM (inactive); GI50 (DLD-1): 23.1 µM (inactive) |
| COc1ccc(NC(=S)N/N=C\c2ccc(NC(C)=O)cc2)cc1 | > 100 µM (inactive) |  |  |  |  |
| COc1ccc(Nc2nc3ccc(C(F)(F)F)cc3nc2-c2ccccc2)cc1OC |  |  | 32.4 µM (inactive) | 43.2 µM (inactive) | GI50 (RXF 631): 39.6 µM (inactive); GI50 (XF498): 49.1 µM (inactive); GI50 (DLD-1): 30.5 µM (inactive) |
| Fc1cccc(C2SCC3=Nc4ccccc4CN32)c1 (stereo not drawn) | 57.3 µM (inactive) |  |  |  |  |
| O=C(NCCCNCCCCNCCCNC(=O)c1cc(-c2ccccc2)nc2ccccc12)c1cc(-c2ccccc2)nc2ccccc12 | 2.63 µM (inactive) |  |  |  |  |
| Cc1ccc(OCC2=NN3C(=O)/C(=C\c4ccc([N+](=O)[O-])o4)SC3N2)cc1 (stereo not drawn) | 2.17 µM (inactive) |  |  |  |  |
| N#CCCN(CCC#N)c1ccc(/C=C2\SC(=S)NC2=O)cc1 | > 100 µM (inactive) |  |  |  |  |
| Nn1c(S)nnc1C12CC3CC(CC(C3)C1)C2 | > 100 µM (inactive) |  |  |  |  |
| CC(O)CNC(=O)C(C)Oc1ccc(OCC2CCCCC2)cc1 (stereo not drawn) |  | > 100 µM (inactive) | > 100 µM (inactive) | > 100 µM (inactive) | GI50 (HOP-18): > 100 µM (inactive); GI50 (XF498): > 100 µM (inactive) |
| CCOC(=O)COc1ccc(OC)c2c1C(=O)CCC2 |  | > 100 µM (inactive) | > 100 µM (inactive) | > 100 µM (inactive) | GI50 (HOP-18): > 100 µM (inactive); GI50 (XF498): > 100 µM (inactive); GI50 (KM-20L2): > 100 µM (inactive) |
| CCN(CC)CCC(=O)NC1c2ccccc2Oc2c(C)cccc21 (stereo not drawn) |  | > 100 µM (inactive) | > 100 µM (inactive) | > 100 µM (inactive) | GI50 (XF498): > 100 µM (inactive); GI50 (DLD-1): > 100 µM (inactive) |
| CC#CC#C/C(=C/C=CC(=O)OC)SC | > 100 µM (inactive) |  |  |  |  |
| O=C(O)CCCN1CCCCC1 | > 100 µM (inactive) |  |  |  |  |
| COc1ccc2c(c1)[n+]([O-])c(C(=O)C/C(=N/NC(=O)c1ccccc1O)C(=O)Nc1ccc(Cl)c(C(F)(F)F)c1)c(C)[n+]2[O-] |  | 52.2 µM (inactive) | 49.9 µM (inactive) | 51.4 µM (inactive) | GI50 (HOP-18): 32.6 µM (inactive); GI50 (XF498): > 100 µM (inactive); GI50 (KM-20L2): > 100 µM (inactive); GI50 (DLD-1): 37.4 µM (inactive) |

| SMILES | GI50 (T47D) | GI50 (M19-MEL) | GI50 (DMS-273) | GI50 (LXFL 529) | other results |
| --- | --- | --- | --- | --- | --- |
| CCOC(=O)CC(NC(=O)c1nc[nH]c1/N=N/N(C)C)C(=O)OCC (stereo not drawn) |  | > 100 µM (inactive) | > 100 µM (inactive) | > 100 µM (inactive) | GI50 (DLD-1): > 100 µM (inactive) |
| O=[N+]([O-])c1sc2ccc(Cl)cc2c1Nc1ccc(Cl)cc1 | > 100 µM (inactive) |  |  |  |  |
| CC(C)c1ccc2c(c1)[C@@]1(C)CC[C@H](C)C(C)(C)C1CC2 (stereo partly drawn) | 26.1 µM (inactive) |  |  |  |  |
| Cc1ccc(-c2nnc(SCC(=O)O)[nH]2)cc1 |  | > 100 µM (inactive) | > 100 µM (inactive) | > 100 µM (inactive) | GI50 (HOP-18): > 100 µM (inactive); GI50 (XF498): > 100 µM (inactive); GI50 (KM-20L2): > 100 µM (inactive); GI50 (DLD-1): > 100 µM (inactive) |
| O=C(O)CCC(=O)Nc1ccc2c(c1)S(=O)(=O)N(CC(=O)O)C2=O | > 100 µM (inactive) |  |  |  |  |
| COc1cc2c(cc1OC)[C@H](C)N1CCc3cc(OC)c(OC)cc3[C@@H]1C2 | > 100 µM (inactive) |  |  |  |  |
| O=[N+]([O-])c1c(O)c2nonc2c2nn(-c3ccccc3)nc12 | > 100 µM (inactive) |  |  |  |  |
| O=C(Nc1ccccc1)N1CCN(C(=O)Nc2ccccc2)C1=S | 40.9 µM (inactive) |  |  |  |  |
| O=C(O)C(/C=C/c1ccccc1)c1ccccc1 (stereo not drawn) | > 100 µM (inactive) |  |  |  |  |
| CC(C)(C)[Si](Nc1ccccc1)(c1ccccc1)c1ccccc1 |  | 14.2 µM (inactive) | 13.6 µM (inactive) |  | GI50 (RXF 631): 15.5 µM (inactive); GI50 (HOP-18): 13.7 µM (inactive); GI50 (XF498): 14.6 µM (inactive); GI50 (KM-20L2): 15.8 µM (inactive) |
| CC[C@H](C)N(CCN)C(=O)c1cc2ccccc2c(-c2ccccc2Cl)n1 |  |  | 13.6 µM (inactive) | 3.3 µM (inactive) | GI50 (KM-20L2): 13.2 µM (inactive) |
| CC(O[Si](c1ccccc1)(c1ccccc1)C(C)(C)C)[C@H](NC(=O)OC(C)(C)C)C(=O)O (stereo partly drawn) | 39.8 µM (inactive) |  |  |  |  |
| Cn1cnc([N+](=O)[O-])c1Sc1nc2ccccc2[nH]1 |  | 14.9 µM (inactive) | 1.91 µM (inactive) | 6.67 µM (inactive) | GI50 (HOP-18): 67.6 µM (inactive); GI50 (XF498): 3.65 µM (inactive); GI50 (KM-20L2): 16.4 µM (inactive); GI50 (DLD-1): 5.6 µM (inactive) |
| CC(O)c1cc2c(s1)C(=O)c1c(C(C)O)csc1C2=O (stereo not drawn) | 0.167 µM (active) |  |  |  |  |
| CCCC[C@H]1C(=O)O[C@H](C)[C@H](NC(=O)c2cccc(NC=O)c2O)C(=O)O[C@@H](C)[C@@H]1OC(=O)CC(C)C [ANTIMYCIN A3] | 2.19 µM (inactive) |  |  |  |  |
| C/C1=C\[C@@H](O)C(=O)/C=C/C=C\c2csc(n2)[C@@H](C)NC(=O)C[C@@]2(CC1)[S+]([O-])SC(=O)[C@]2(C)O (stereo partly drawn) [LEINAMYCIN] | 0.00102 µM (active) | 0.0344 µM (active) | 0.0135 µM (active) | 0.0139 µM (active) | GI50 (HOP-18): 0.0301 µM (active); GI50 (KM-20L2): 0.0881 µM (active); GI50 (DLD-1): 0.0209 µM (active) |
